In PMC6747274, “Multifunctional Peptides from Spanish Dry-Cured Pork Ham: Endothelial Responses and Molecular Modeling Studies” (International Journal of Molecular Sciences, 2019):
Where no end group is shown, it is not given here.

Columns and labels:
[1] = tested on: VCAM-1 mRNA, EA.hy926 cells; experiment: VCAM-1 mRNA expression by RT-PCR in EA.hy926 cells; type: cell-based, human; details: 300 µM peptide 16 h, then 100 ng/mL TNF-α 6 h; p = 0.01 (BP2), 0.03 (BP3), 0.02 (BP4)
Method: EA.hy926 cells, the hybrid human umbilical vein endothelial cell line, were obtained from the American Type Culture Collection (ATCC® CRL2922™, Rockville, MD, USA). Cells were cultured in high glucose Dulbecco’s Modified Eagle’s Medium (DMEM), containing 10% heat-inactivated fetal bovine serum (FBS, Biowest, Riverside, CA, USA) and 50 U/mL of penicillin and 50 µg/mL streptomycin (Sigma Aldrich Chemical Co., Saint Louis, MO, USA). Cells were grown in 5% CO2 in a humidified air incubator at 37 °C. Subculture was performed when 90% confluence was reached.
(§1) EA.hy926 were seeded in six-well plates at 0.25 × 10^6 cells/well in DMEM supplemented with 5% FBS. Cells were treated with 300 µM of each peptide for 16 h. Then, 100 ng/mL TNF-α or 300 µM H2O2 were added for an additional 6 h or 24 h, respectively.
Total RNA was extracted from EA.hy926 cells using 300 µL Trisure™ (Bioline, Taunton, MA, USA) reagent and Direct-zol™ RNA MiniPrep (Zymo Research Irvine, Irvine, CA, USA) according to the manufacturer’s protocol. Total RNA was reverse-transcribed into complementary DNA (Sensifast cDNATM Synthesis kit, Bioline, Taunton, MA, USA). The mRNA levels of the target genes were quantified by RT-PCR using SensiFAST SYBER Hi-ROX Kit (Bioline, Taunton, MA, USA) with StepOnePlus Real-Time PCR System (Applied Biosystems, Foster City, CA, USA). Briefly, 5 µL of 1:5 diluted cDNA was added to the qPCR reaction containing 10 μL 2X SensiFAST Mix and 400 nM of each primer in a total volume of 20 μL.
Specific and validated primers for human glyceraldehyde-3-phosphate dehydrogenase (GADPH), intercellular adhesion marker-1 (ICAM-1), vascular cell adhesion marker-1 (VCAM-1), endothelial nitric oxide synthase (eNOS), interleukin 6 (IL-6), catalase, SOD (Super Oxide Dismutase), NADPH (Nicotinamide Adenine Dinucleotide Phosphate oxidase) and Bax (proapoptosis regulator) genes were used (Sigma-Aldrich Chemical Co., Saint Louis, MO, USA). […]
The relative quantification of gene expression was determined by the comparative fold change […] method. […]

[2] = tested on: ICAM-1 protein, EA.hy926 cells; experiment: Intracellular ICAM-1 protein by western blot; type: cell-based, human; details: 300 µM peptide + 100 ng/mL TNF-α vs TNF-α stimulation; p < 0.01
Method: as §1
Supplementary Material and Methods
1.1. Human ACE Inhibitio n Assa y
Before transfection, the endothelial ACE expressio n level was very low and the p roduct of the enzymatic reaction undete ctable, and so a recombinant construct e ncodi ng the Myc-Tag fused to the ACE ge ne was used. T o overexpress the ACE enzyme, EA.hy926 cel ls were seeded in 24-well plates at 80,000 cells/well and transiently transfec ted with a human Ace ORF mammali an expression plasmid (Sinobiological, Beijing, China) using trans-it X2 reagent ( Myrus®, Madi son, […]
Wisconsin, USA). […] The effi ciency of […]
transfecti on was checked by immunofluorescence. Briefly, 48 h post-transfection, cells were fixed with 4% paraformaldehyd e in culture medi um for 15 min at room temperatur e, blocked with 1% bo vine seru m albumin (BSA) in phosph ate buffer for 30 min followed by 0.2% sapo nin for 30 min to permeabil ize the membr ane. […]
The mRNA level s of the target genes (ICAM-1, VCAM-1, IL-6, eNOS, SOD, catal ase, NADPH, BAX) were quantified by RT-PCR using Se nsiFAST SYBER Hi-ROX Kit (Bioline, Taunton, USA) with StepOnePlus Real-Time PCR Sy stem (Appl ied Bi osystems, Foster City, CA, USA) using speci fi c and vali dated pri mers (Si gma-Al drich Chemical Co., Saint Louis, MO, USA).
The tetr azolium assay (MTT) was used to estimate the cel l viability in the presence of synthetic pepti des (up to 600 µM) and 300 µM H2O2. […] The formazan crystals formed in the intact cel ls were dissol ved in 200 µL dimethyl sulfoxide (DMSO) for 30 min and the absorbance was measured in a micro plate reader at 570 nm and 620 nm of reference. Results wer e calculated as cel l viability (%) = average optic density (OD) of wells/ave rage OD of control wells. […]

[3] = target: human ACE (Homo sapiens, UniProt P12821); experiment: Human ACE inhibition assay (lysate of ACE-transfected EA.hy926 cells, HHL substrate, HPLC)
human ACE, sequence (P12821 30-1306): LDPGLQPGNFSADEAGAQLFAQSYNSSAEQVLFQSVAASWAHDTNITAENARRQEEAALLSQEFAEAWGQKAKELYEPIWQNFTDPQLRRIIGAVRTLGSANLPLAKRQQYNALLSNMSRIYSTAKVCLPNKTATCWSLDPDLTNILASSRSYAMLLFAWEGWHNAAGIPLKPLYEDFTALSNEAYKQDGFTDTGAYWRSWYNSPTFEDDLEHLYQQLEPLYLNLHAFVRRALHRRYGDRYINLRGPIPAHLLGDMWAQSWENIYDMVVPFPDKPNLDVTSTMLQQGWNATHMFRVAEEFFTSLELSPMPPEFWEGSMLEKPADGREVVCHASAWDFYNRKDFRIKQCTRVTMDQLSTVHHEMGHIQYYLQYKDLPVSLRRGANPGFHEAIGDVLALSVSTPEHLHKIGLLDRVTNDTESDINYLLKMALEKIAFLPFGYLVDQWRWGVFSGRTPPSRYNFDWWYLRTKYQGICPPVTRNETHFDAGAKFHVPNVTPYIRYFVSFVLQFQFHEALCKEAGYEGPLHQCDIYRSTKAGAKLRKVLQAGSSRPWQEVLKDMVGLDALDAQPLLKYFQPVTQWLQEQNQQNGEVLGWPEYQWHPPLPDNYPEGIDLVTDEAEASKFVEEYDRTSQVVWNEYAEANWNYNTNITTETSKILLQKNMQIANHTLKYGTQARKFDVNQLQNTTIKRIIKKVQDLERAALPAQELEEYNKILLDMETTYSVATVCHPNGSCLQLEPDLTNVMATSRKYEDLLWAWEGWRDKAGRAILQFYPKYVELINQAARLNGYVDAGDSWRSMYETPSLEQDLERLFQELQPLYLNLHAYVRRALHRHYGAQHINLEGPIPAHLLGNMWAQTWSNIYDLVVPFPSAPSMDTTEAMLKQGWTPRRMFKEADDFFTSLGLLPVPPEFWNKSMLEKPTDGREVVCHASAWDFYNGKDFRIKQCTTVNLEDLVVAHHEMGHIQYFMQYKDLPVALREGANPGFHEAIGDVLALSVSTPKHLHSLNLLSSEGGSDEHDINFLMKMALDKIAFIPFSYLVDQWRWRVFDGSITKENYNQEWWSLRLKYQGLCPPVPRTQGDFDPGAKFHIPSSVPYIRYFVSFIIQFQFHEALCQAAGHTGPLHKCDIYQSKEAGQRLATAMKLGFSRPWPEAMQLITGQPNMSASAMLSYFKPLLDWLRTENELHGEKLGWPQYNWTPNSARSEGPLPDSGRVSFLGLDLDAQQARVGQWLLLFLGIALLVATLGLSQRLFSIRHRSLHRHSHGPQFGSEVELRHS

AAATP [BP4]
VCAM-1 mRNA expression vs TNF-α stimulated cells [1]: downregulated | ICAM-1 protein production (western blot) [2]: lower production of ICAM-1 protein | IC50 [3]: > 1000 µM

KAAAATP [BP2]
VCAM-1 mRNA expression vs TNF-α stimulated cells [1]: downregulated | ICAM-1 protein production (western blot) [2]: lower production of ICAM-1 protein | IC50 [3]: > 1000 µM
